Literature values as cited in article PMC8854719, “Phase 1A/1B dose-escalation and -expansion study to evaluate the safety, pharmacokinetics, food effects and antitumor activity of pamiparib in advanced solid tumours” (British Journal of Cancer, 2021).
Read-outs that look alike come from different tables or passages of the source.

Tests used:
[1] = cited from earlier work
ovarian cancer = details: Phase 2 studies, BRCAmut ovarian cancer after prior platinum-based chemotherapy; cited from earlier work
[2] = other monotherapy studies in advanced cancer (rucaparib: anaemia/decreased haemoglobin)
[3] = separate Phase 3 trials in ovarian cancer

Structure (SMILES)	Anaemia, Grade ≥3 [1, 2] [%]	Anaemia, Grade ≥3 [1, 3] [%]	Anaemia, any Grade [1, 3] [%]	ORR (ovarian cancer) [%]
NC(=O)c1cccc2cn(-c3ccc([C@@H]4CCCNC4)cc3)nc12 [niraparib]	24	25	50	28.0
O=C(c1cc(Cc2n[nH]c(=O)c3ccccc23)ccc1F)N1CCN(C(=O)C2CC2)CC1 [olaparib]	17	19	44	31.1
CNCc1ccc(-c2[nH]c3cc(F)cc4c3c2CCNC4=O)cc1 [rucaparib]	24.9	19	37	53.8
